Test [1] concerns the target plate-immobilized collagen (Homo sapiens, UniProt P02452+P08123). As to the kind of experiment: collagen binding study with iodinated FN and FNPEG-5K. The following applies: iodinated protein; compared with native FN. The procedure: Purified FN was then reabsorbed to gelatin agarose. Sodium cyanoborohydride and mPEG-aldehyde (MW 5,000) were added to the resin-bound FN. […] Following this reaction and subsequent washing away of the reactants, the protein was eluted from the gelatin agarose matrix. Using this reaction sequence, the collagen binding sites within FN were not modified by the pegylation. […] To test whether the modified forms of FN retained the collagen-binding properties of native FN, binding studies using iodinated FN and FNPEG-5K were undertaken. […] Thus, the key collagen-binding properties of FN were not inhibited by this targeted modification approach.

The test system of a further test is platelets. As to the kind of experiment: platelet adhesion to FN or FNPEG-5K immobilized on tissue culture plates. The test is classed as cell-based, human. The following applies: protein immobilized onto tissue culture plates; fluorescently labeled platelets. The procedure: As mentioned previously, FN itself has the ability to mediate adhesion of platelets. To test whether this binding potential was eliminated following mPEG-aldehyde derivatization, FN and FNPEG-5K were immobilized onto tissue culture plates. Fluorescently labeled human […] and adhesion was assessed.

For test [2], the system named is blood vessel wall molecules. As to the kind of experiment: incubation of damaged blood vessels with biotinylated bioconjugate. Format: binding. Particulars: biotinylated form. The procedure:
To further assess the ECM-binding properties FNPEG-5K, damaged blood vessels were incubated with a biotinylated form of bioconjugate.

For a further test, the target named is type I collagen (Homo sapiens, UniProt P02452+P08123). As to the kind of experiment: platelet adhesion to type I collagen adsorbed to tissue culture plates after incubation with FN or FNPEG-5K. The following applies: incubated with the protein and washed. Format: cell-based. The procedure:
(§1) Since the modified FNPEG-5K retained the collagen binding properties of native FN while lacking its intrinsic platelet activating properties, the ability of this reagent to block platelet adherence to collagen was investigated. To test this, type I collagen was adsorbed to tissue culture plates. Native FN or FNPEG-5K were then incubated with the immobilized collagen and washed. Platelet adhesion was then assessed.

Another test relates to vascular wall components. As to the kind of experiment: platelet adhesion to damaged blood vessels. The test is classed as cell-based. The procedure:
as §1

Chain of type I collagen (P02452 162-1218 limits assumed): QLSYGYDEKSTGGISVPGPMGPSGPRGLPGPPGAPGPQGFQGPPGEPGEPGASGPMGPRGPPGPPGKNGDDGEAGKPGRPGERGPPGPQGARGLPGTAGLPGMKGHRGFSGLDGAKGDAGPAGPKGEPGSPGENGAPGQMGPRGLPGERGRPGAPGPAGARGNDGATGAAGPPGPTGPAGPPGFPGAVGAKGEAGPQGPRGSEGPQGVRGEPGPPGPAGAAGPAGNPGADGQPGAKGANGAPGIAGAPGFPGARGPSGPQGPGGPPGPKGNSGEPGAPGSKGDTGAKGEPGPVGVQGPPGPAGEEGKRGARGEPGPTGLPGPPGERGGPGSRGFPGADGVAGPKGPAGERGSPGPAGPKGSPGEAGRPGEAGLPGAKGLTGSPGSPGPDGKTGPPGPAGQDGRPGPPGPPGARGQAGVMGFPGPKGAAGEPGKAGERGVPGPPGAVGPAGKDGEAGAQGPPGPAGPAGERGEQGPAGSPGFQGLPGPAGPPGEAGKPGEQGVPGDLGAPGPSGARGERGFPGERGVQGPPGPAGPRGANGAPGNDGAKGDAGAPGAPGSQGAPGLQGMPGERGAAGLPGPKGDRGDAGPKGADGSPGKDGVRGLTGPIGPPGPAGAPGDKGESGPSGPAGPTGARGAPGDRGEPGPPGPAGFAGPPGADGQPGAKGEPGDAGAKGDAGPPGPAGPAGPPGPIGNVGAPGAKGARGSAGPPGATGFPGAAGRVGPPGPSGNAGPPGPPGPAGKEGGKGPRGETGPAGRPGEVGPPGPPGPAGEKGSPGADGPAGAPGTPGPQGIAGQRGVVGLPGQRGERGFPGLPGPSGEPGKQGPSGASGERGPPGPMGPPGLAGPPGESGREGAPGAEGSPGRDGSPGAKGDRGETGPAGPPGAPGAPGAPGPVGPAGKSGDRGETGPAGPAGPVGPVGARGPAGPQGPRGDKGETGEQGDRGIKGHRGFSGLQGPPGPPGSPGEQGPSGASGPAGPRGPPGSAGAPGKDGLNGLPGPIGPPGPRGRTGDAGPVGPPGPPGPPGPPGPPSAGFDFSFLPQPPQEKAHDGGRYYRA
Chain of type I collagen (P08123 80-1119 limits assumed): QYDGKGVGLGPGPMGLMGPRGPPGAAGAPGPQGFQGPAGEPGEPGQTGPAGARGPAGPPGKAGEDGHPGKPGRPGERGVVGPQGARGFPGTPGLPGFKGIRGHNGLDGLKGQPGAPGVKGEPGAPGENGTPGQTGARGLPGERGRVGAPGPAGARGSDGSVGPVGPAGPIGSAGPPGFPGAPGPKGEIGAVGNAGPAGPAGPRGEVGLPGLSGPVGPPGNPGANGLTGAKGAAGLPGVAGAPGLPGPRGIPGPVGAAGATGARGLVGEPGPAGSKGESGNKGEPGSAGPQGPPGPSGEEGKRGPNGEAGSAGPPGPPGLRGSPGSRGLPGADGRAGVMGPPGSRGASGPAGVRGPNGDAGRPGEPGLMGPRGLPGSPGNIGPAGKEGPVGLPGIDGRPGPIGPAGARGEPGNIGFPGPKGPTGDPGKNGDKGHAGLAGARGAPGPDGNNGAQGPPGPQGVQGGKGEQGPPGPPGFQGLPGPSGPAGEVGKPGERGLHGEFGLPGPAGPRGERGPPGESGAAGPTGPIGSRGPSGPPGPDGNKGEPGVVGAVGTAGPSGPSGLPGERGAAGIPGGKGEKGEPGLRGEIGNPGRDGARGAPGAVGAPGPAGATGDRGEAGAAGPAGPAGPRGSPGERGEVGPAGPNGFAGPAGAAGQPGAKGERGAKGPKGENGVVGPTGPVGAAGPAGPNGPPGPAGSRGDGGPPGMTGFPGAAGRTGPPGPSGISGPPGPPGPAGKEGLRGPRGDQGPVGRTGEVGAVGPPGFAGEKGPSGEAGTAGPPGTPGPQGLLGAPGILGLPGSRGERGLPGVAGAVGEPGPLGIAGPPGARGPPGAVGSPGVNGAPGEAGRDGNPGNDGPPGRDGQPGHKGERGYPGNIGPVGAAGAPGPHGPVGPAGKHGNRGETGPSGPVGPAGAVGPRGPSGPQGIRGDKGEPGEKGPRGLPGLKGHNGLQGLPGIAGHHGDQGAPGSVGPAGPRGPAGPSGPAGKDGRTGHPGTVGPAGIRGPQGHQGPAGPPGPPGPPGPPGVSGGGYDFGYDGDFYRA
Chain of plate-immobilized collagen (P02452 162-1218 limits assumed): as the sequence (P02452 162-1218 limits assumed) above
Chain of plate-immobilized collagen (P08123 80-1119 limits assumed): as the sequence (P08123 80-1119 limits assumed) above

Consider “FNPEG-5K: human plasma fibronectin pegylated on lysine residues with mPEG-aldehyde (MW 5,000) by reductive amination while bound to gelatin agarose”, for which, in test [1], the “binding to plate-immobilized collagen” value was “bound plate-immobilized collagen in a manner similar to native FN”. Further, in the test on platelets, the “binding to platelets (platelet adhesion to immobilized protein)” value was “markedly attenuated”. Moreover, the “coating of blood vessel wall molecules (ECM binding)” value in test [2] is recorded as “coats blood vessel wall molecules”. Besides, in the test with type I collagen, the “inhibition of platelet binding to type I collagen” value is “potently inhibited”. In the test on vascular wall components, the “blocking of platelet adhesion to vascular wall components” value is “blocks platelet adhesion to vascular wall components”.

These data come from patent US20130243700A1, “Proteomic Antisense Molecular Shield and Targeting” (priority 2005, published 2013).
